Columns and labels:
Assay type in all cases: cell-based
[1] = test system: B. subtilis; test: Growth and survival of B. subtilis growing in LB medium (CFU); settings: 1.8 mM added at OD600 of 0.2, LB medium, 37° C.; FIG. 3
Method: The effect of A2 on growth and survival of B. subtilis growing in LB medium was then evaluated. Bacteria were grown overnight at 23° C. and diluted to an OD600 of 0.05. Subsequently, bacteria were further grown at 37° C. and A2 (1.8 mM) was added at an OD600 of 0.2. Bacterial growth was then continuously monitored by measuring the turbidity of the medium at 600 nm (OD600). Samples were taken and plated on LB plates. The plates were incubated at 37° C. for 15 hours. Colony forming units (CFU) were counted and compared to the untreated culture.

[2] = test system: B. subtilis; test: Mature spore formation after induced sporulation (heat shock, CFU count)
Method: Cells were grown to an OD600 of 0.5. They were then washed with synthetic medium on a membrane filter and suspended in synthetic medium lacking amino acids in order to induce them to sporulate in the presence and the absence of inhibitors. Sporulation was monitored by fluorescence microscopy.
In order to further evaluate the effect of compounds A2 on sporulation, wild type bacteria were induced to sporulate in the presence of different concentrations (from 200 to 1.8 mM) of compound A2 and the process was monitored using fluorescence microscopy. With the aim of learning about the fate of the spores formed in the previously described cultures, an aliquot from the cell culture was taken and subjected to heat treatment (heat shock). The treatment included exposure of the cultures to 80° C. for 15 minutes and further plating on LB plates. After incubating the plates for 15 hours at 37° C., the colony forming units (CFUs) were quantified and the percent of mature spore formation was calculated (FIG. 2B-C).
The influence of the timing of addition of A2 was evaluated. Bacteria were induced to sporulate and A2 (1.8 mM) was added to the cultures every two hours (at T=0, T=2, T=4 and T=6). After growing overnight the cultures were heated and plated on LB plates.

[3] = test system: A431 Epidermoid carcinoma cells; test: MTT cytotoxicity assay on A431 cells; settings: 72 hours incubation, up to 10 different concentrations, FIG. 8
Method: (§1) Cytotoxicity of compound A2 on eukaryotic (A431) and prokaryotic cells (B. Subtilis) was determined by using the methylthiazolyldiphenyl-tetrazolium bromide (MTT) assay. Bacteria were grown in CH medium and samples were taken and plated on LB plates after 24 hours of growth. The plates were incubated at 37° C. for 15 hours. Colony forming units (CFU) were counted and compared to the untreated culture. Viable bacterial cells are counted as CFU/mL: colony forming units per milliliter. Each CFU is equivalent to viable cell.
In a standard procedure, the cell line (A431: epidermoid carcinoma) was incubated for 24 hours in 37° C. and 5% CO2. Subsequently, compound A2 was added to the wells in up to 10 different concentrations. Subsequent to incubation of cells with A2 for an additional 72 hours, the MTT reagent was added.

[4] = test system: B. subtilis; test: Bacterial survival in CH medium (CFU after 24 hours of growth)
Method: Bacteria were grown in CH medium and samples were taken and plated on LB plates after 24 hours of growth. The plates were incubated at 37° C. for 15 hours. Colony forming units (CFU) were counted and compared to the untreated culture.
as §1

## CC(C)C(=O)Nc1nc2c(ncn2[C@H]2CC(OC(=O)NCC(=O)NCC(=O)O)[C@@H](COC(=O)NCC(=O)NCC(=O)O)O2)c(=O)[nH]1 (stereo partly shown) [Compound A2]
[1]
  number of CFUs compared to the untreated culture: substantially reduced the number of CFUs
[2]; 0.22 mM (lowest tested concentration), heat shock 80° C. 15 minutes, CFU, FIG. 2B-C
  reduction of the formation of mature spores: about 70%
[2]; Bacillus subtilis, 1.8 mM added at T=0, T=2, T=4 or T=6 after inducing sporulation, in every case, FIG. 7, read-out: inhibition of the formation of mature spores
  inhibition at 1800 µM: > 80%
[2]; rest of the tested concentrations (above 0.22 mM, up to 1.8 mM), FIG. 2B-C
  inhibition of sporulation: 100%
[3]
  cytotoxicity to A431 cells (eukaryotic): not to A431 cells
[4]; CFU/mL after 24 hours of growth in CH medium, FIG. 8
  cytotoxicity to B. Subtilis cells (prokaryotic): completely cytotoxic
[4]; CH medium, after 24 hours of growth, increasing concentrations, FIG. 6
  CFU/mL of the treated cultures: decreases in a dose dependent fashion

— patent publication US9133231B2, “Compounds for treating bacterial infections” (Yissum Research Development Company of the Hebrew …, priority 2010, dated 2015)
